One compound from article PMC10333285, “Structural basis of ligand activation and inhibition in a mammalian TRPV4 ion channel” (Cell Discovery, 2023) can be followed below.

Usually IC50 stands for the point on the concentration scale where inhibition reaches its midpoint. The low end stands for greater potency, the high end for weaker potency.

Test [1] addresses TRPV4 (mTRPV4) (Mus musculus, UniProt Q9EPK8, D682A). The test is described as follows: patch-clamp inhibition of GSK101-activated mutant channel. Type of test: cell-based. A general note: Patch clamp records ionic current or voltage across a cell membrane.
Test [2] addresses TRPV4 (mTRPV4) (Mus musculus, UniProt Q9EPK8). As to the kind of experiment: cryo-EM structure with GSK101 also bound ([…] Å); patch-clamp inhibition IC50. Type of test: cell-based.

Chain of TRPV4 (mTRPV4) (Mus musculus, UniProt Q9EPK8, D682A) (Q9EPK8 whole entry D682A): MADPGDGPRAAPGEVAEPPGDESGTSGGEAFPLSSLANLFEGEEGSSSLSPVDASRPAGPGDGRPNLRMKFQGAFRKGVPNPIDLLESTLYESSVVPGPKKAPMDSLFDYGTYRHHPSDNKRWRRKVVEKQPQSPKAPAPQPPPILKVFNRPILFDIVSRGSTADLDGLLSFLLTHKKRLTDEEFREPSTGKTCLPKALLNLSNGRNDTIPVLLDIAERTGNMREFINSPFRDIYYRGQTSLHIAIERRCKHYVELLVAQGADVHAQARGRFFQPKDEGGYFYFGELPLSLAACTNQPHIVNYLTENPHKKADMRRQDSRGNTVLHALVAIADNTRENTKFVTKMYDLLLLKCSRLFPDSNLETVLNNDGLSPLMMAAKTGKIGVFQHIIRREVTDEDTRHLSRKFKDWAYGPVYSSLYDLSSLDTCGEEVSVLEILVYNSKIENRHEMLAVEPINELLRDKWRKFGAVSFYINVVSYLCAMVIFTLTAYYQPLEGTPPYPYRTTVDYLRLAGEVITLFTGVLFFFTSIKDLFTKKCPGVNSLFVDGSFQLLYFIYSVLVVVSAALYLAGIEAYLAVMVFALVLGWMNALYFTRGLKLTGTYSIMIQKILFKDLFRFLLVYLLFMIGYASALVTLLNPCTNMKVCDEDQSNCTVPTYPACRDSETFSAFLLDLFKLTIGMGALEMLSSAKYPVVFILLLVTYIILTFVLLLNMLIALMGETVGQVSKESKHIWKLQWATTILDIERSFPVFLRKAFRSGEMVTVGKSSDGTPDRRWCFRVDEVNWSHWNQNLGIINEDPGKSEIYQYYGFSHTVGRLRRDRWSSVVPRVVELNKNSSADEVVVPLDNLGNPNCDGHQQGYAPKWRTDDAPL
Chain of TRPV4 (mTRPV4) (Mus musculus, UniProt Q9EPK8) (Q9EPK8 whole entry): as the sequence (Q9EPK8 whole entry D682A) above, with A682D counted along it

In the case of `Cl.Cl.Cl.Cl.Cl.Cl.N.N.N.N.N.N.N.N.N.N.N.N.N.N.[O-2].[O-2].[Ru+3].[Ru+3].[Ru+4]` [ruthenium red], the IC50 was found to be 15.6 ± 3.2 µM against TRPV4 (mTRPV4) [1] and 0.3 ± 0.1 µM against TRPV4 (mTRPV4) [2].
